The values that follow come from PMC3060082 (Journal of medicinal chemistry, 2010).

The test system of test [1] is NAADP receptor. Kind of test: Competition ligand binding with [32P]NAADP in sea urchin egg homogenate. To be noted: assay not specified.
For test [2], the system named is NAADP receptor. Kind of test: Ca2+ release from Ca2+ loaded sea urchin egg homogenates. To be noted: for potency for Ca2+ release compared to NAADP (fold less potent): text summary of concentration response curves, Figure 2 / Table 3; for Fold increase in EC50: relative to NAADP (1); for concentration as low as which calcium-ion release is induced: Figure 1 traces; for amount of calcium release at saturating concentrations: compared with NAADP. It counts as biochemical, sea urchin (Strongylocentrotus purpuratus).

The test system of test [3] is NAADP receptor. It counts as biochemical, sea urchin. To be noted: 9 min pretreatment at 1 nM or higher (subthreshold concentration).

For `Cc1cc[n+]([C@H]2O[C@@H](COP(=O)(O)OP(=O)(O)OC[C@H]3O[C@@H](n4cnc5c(N)ncnc54)[C@H](OP(=O)(O)O)[C@@H]3O)[C@H](O)[C@@H]2O)cc1C(=O)[O-]` [compound 17, 4-methyl-NAADP], the “loss of potency relative to NAADP” value in the test with NAADP receptor [1] is reported as 100 to 200 fold. Besides, the “potency for Ca2+ release compared with the 5-isomer 21” value in the test with NAADP receptor [2] (Figure 1) is on record as “significantly less potent”. The “potency for Ca2+ release compared to NAADP (fold less potent)” value (shortened to “potency … (fold less potent)”) in the test on NAADP receptor [2] is reported as “two hundred to two thousand fold less potent”.
As to `[N-]=[N+]=Nc1cc(C(=O)[O-])c[n+]([C@H]2O[C@@H](COP(=O)(O)OP(=O)(O)OC[C@H]3O[C@@H](n4cnc5c(N)ncnc54)[C@H](OP(=O)(O)O)[C@@H]3O)[C@H](O)[C@@H]2O)c1` [compound 24, 5-azido-NAADP], in the test with NAADP receptor [2], the “potency … (fold less potent)” value was in the range of 10 to 100 fold.
For `Nc1ncnc2c1ncn2[C@@H]1O[C@H](COP(=O)(O)OP(=O)(O)OC[C@@H]2O[C@H]([n+]3cc(C(=O)[O-])cc(C(=O)O)c3)[C@@H](O)[C@H]2O)[C@@H](O)[C@H]1OP(=O)(O)O` [compound 22, 5-carboxy-NAADP], the “Fold increase in EC50” value with NAADP receptor [2] is listed as > 50,000 fold.
For the compound `Nc1cc(C(=O)[O-])c[n+]([C@H]2O[C@@H](COP(=O)(O)OP(=O)(O)OC[C@H]3O[C@@H](n4cnc5c(N)ncnc54)[C@H](OP(=O)(O)O)[C@@H]3O)[C@H](O)[C@@H]2O)c1` [compound 20, 5-amino-NAADP], the “loss of potency relative to NAADP” value in the test with NAADP receptor [1] was “only slightly less potent than is NAADP itself”. In addition, in the test with NAADP receptor [2], the “concentration as low as which calcium-ion release is induced” value is 2 nM, the “amount of calcium release at saturating concentrations” value is “same amount of calcium release as did the full agonist NAADP” and the “potency … (fold less potent)” value is “approximately equipotent with NAADP”.
Regarding `Cc1cc(C(=O)[O-])c[n+]([C@H]2O[C@@H](COP(=O)(O)OP(=O)(O)OC[C@H]3O[C@@H](n4cnc5c(N)ncnc54)[C@H](OP(=O)(O)O)[C@@H]3O)[C@H](O)[C@@H]2O)c1` [compound 21, 5-methyl-NAADP], the “receptor desensitization to 1 μM NAADP after pretreatment” value in the test with NAADP receptor [3] is on record as “same characteristic receptor desensitization as does NAADP itself”. Further, in the test on NAADP receptor [1], the “loss of potency relative to NAADP” value is “only slightly less potent than is NAADP itself”. Further, in the test on NAADP receptor [2], the “concentration as low as which calcium-ion release is induced” value is reported as 2 nM, the “amount of calcium release at saturating concentrations” value is “same amount of calcium release as did the full agonist NAADP” and the “potency … (fold less potent)” value is on record as “approximately equipotent with NAADP”.
Turning to `CCc1cc(C(=O)[O-])c[n+]([C@H]2O[C@@H](COP(=O)(O)OP(=O)(O)OC[C@H]3O[C@@H](n4cnc5c(N)ncnc54)[C@H](OP(=O)(O)O)[C@@H]3O)[C@H](O)[C@@H]2O)c1` [compound 23, 5-ethyl-NAADP], the “loss of potency relative to NAADP” value in the test on NAADP receptor [1] was found to be 20 fold. In the test with NAADP receptor [2], the “potency … (fold less potent)” value is on record as 10 to 100 fold.
Take `CCCCc1cc[n+]([C@H]2O[C@@H](COP(=O)(O)OP(=O)(O)OC[C@H]3O[C@@H](n4cnc5c(N)ncnc54)[C@H](OP(=O)(O)O)[C@@H]3O)[C@H](O)[C@@H]2O)cc1C(=O)[O-]` [compound 18, 4-n-butyl-NAADP]: the “Fold increase in EC50” value in the test with NAADP receptor [2] is > 50,000 fold.
In the case of `Nc1ncnc2c1ncn2[C@@H]1O[C@H](COP(=O)(O)OP(=O)(O)OC[C@@H]2O[C@H]([n+]3ccc(-c4ccccc4)c(C(=O)[O-])c3)[C@@H](O)[C@H]2O)[C@@H](O)[C@H]1OP(=O)(O)O` [compound 19, 4-phenyl-NAADP], the “Fold increase in EC50” value in the test on NAADP receptor [2] is listed as > 50,000 fold.
Turning to `Nc1cc[n+]([C@H]2O[C@@H](COP(=O)(O)OP(=O)(O)OC[C@H]3O[C@@H](n4cnc5c(N)ncnc54)[C@H](OP(=O)(O)O)[C@@H]3O)[C@H](O)[C@@H]2O)cc1C(=O)[O-]` [compound 16, 4-amino-NAADP], the “loss of potency relative to NAADP” value in the test on NAADP receptor [1] is 100 to 200 fold. Also, the “potency … (fold less potent)” value in the test with NAADP receptor [2] is on record as “two hundred to two thousand fold less potent”.
